Here are results for 23 compounds from US12606552B2, “Bifunctional compound, preparation method therefor, and use thereof” (SUZHOU KINTOR PHARMACEUTICALS, INC., priority 2020, dated 2026).

Data set [1] can be described thus: Pharmacokinetic studies of compounds in mice. In kind it is in vivo. To be noted: male mice, intragastric administration 10 mg/kg, plasma. On the procedure:
Activity Assay Example 3: Pharmacokinetic Studies of Compounds in Mice
In this test, 3 male mice were selected and divided into 1 group, 3 mice/group. All animals were fasted overnight before administration.
The intragastric administration dose was 10 mg/kg, and the administration volume was 10 mL/kg.
2.2 Preparation of Drug Solution
According to the animal body weight combined with the administration dose, the amount of the required drug solution was calculated. An appropriate amount of the test substance was weighed, added with 5% of the final volume of ethanol for dissolution, then added with 5% of the final volume of SolutolHS15, and finally added with PBS to the final volume, and mixed by vortex and fully dissolved to obtain a solution for intragastric administration (1 mg/mL). All solutions were prepared for immediate use.
2.3 Method of Administration
Before administration, the drug solution was placed on a magnetic stirrer in the animal laboratory and stirred for at least 10 min. During the administration process, vortex was continued to ensure uniformity of the drug solution. The theoretical volume of gavage administration was 10 mL/kg, which was administered with a syringe equipped with a gavage needle.
Before administration, the animals were weighed and the body weight of the animals involved in the experiment was recorded, and the administration volume of each animal was calculated according to the body weight. After administration, animals were promptly transferred back to the experimental cages to collect samples.
2.4 Observation of Animal Status
After administration, whether animals had abnormal reactions was observed immediately. If there were no abnormal reactions, animals were observed twice a day during the experiment. If abnormal reactions were found, they should be recorded in time, and the number of observations should be increased until the animals returned to normal or to the end of the experiment.
2.5 Sample Collection and Preservation
All experimental animals were fasted overnight before administration, and blood was collected at corresponding time points into blood collection tubes containing heparin sodium anticoagulant. After the whole blood was collected, the blood collection tube was gently shaken and placed on ice immediately, and then centrifuged (4° C., 4000 rpm, 10 min) to collect supernatant plasma samples, which were stored in a refrigerator at −80° C. before analysis.
2.6 Plasma Sample Processing and Analysis
The collected plasma samples were handed over to the Pharmacokinetic department for sample extraction, and the test substances in the plasma were extracted by protein precipitation method using organic reagents containing internal standards (acetonitrile:plasma=4:1, v/v). The extracted processed samples were submitted for quantitative concentration analysis by LC-MS/MS. According to the plasma concentration of each animal obtained by the analysis, software Kinetica (version 5.0) was used to calculate the main pharmacokinetic parameter eAUC30-120 according to the non-compartment model to evaluate the exposure amount; the test results are shown in Table 2: […]

In data set [2] the target is T1, AR (Homo sapiens, UniProt P10275, T878A).
T1 sequence (P10275 1-920 T878A): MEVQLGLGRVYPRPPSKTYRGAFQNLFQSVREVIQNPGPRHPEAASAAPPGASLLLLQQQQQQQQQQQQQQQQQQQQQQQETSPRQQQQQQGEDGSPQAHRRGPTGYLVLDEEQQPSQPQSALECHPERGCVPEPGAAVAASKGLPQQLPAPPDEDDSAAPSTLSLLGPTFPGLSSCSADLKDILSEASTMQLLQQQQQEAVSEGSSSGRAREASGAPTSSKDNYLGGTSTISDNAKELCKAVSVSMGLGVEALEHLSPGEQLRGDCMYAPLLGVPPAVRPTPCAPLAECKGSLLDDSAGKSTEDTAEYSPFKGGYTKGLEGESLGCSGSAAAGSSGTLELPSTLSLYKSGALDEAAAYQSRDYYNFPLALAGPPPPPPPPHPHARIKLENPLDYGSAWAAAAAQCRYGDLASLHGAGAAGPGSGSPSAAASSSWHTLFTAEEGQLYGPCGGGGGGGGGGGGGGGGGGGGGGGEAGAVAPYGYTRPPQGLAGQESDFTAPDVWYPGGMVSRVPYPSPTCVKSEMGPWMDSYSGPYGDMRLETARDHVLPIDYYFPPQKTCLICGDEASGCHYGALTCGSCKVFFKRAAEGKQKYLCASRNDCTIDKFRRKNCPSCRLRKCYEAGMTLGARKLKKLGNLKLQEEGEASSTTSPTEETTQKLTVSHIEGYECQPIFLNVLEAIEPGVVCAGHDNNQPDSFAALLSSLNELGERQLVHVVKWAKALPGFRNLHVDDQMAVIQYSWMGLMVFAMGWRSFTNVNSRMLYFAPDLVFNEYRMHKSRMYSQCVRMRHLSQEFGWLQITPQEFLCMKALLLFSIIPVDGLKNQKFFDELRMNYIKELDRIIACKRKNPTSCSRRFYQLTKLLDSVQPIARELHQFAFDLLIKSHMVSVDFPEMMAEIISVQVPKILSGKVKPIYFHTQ
The data set can be described thus: Effects of compounds on AR expression in LNCaP cells (ELISA, DC50). In kind it is cell-based. To be noted: 24 hours of drug treatment, AR by ELISA. Set-up: Measurement of the Effects of Drugs on the Expression of AR in Cells by ELISA Method; endogenous in cells; host or cells: LNCaP. The method in brief:
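LNCaP cells at about 15,000/well were treated for 24 h with compound at 0.0001–2 μmol/L final. AR in cell lysates was measured by ELISA (OD450). Inhibition was relative to DMSO control after blank subtraction, and DC50 was calculated from it.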

With `Cc1ncsc1-c1ccc([C@H](CC(=O)N2CCC(C#Cc3ccc(N4C(=S)N(c5ccc(C#N)c(C(F)(F)F)c5F)C(=O)C4(C)C)cc3)CC2)NC(=O)[C@@H]2C[C@@H](O)CN2C(=O)[C@@H](NC(=O)C2(F)CC2)C(C)(C)C)cc1` [Compound A133], the “eAUC0.5-2 h” value in data set [1] is 2253 ± 851 ng·h/mL. For the same compound, the DC50 in data set [2] was 33.3 nM.

In data set [2], `CC1(C)C(=O)N(c2ccc(C#N)c(C(F)(F)F)c2F)C(=S)N1c1cnc(-c2cc(F)c(OC3CCN(C(=O)COc4cccc5c4C(=O)N(C4CCC(=O)NC4=O)C5=O)CC3)c(F)c2)c(F)c1` (stereo not drawn) [Compound A191] yielded a DC50 of 162 nM.

Consider `Cc1ncsc1-c1ccc(CNC(=O)[C@@H]2C[C@@H](O)CN2C(=O)[C@@H](NC(=O)COCCOCCCOc2ncc(N3C(=S)N(c4ccc(C#N)c(C(F)(F)F)c4F)C(=O)C3(C)C)cc2F)C(C)(C)C)cc1` [Compound A267], for which the DC50 in data set [2] came out at 119 nM.

In turn, `Cc1ncsc1-c1ccc(CNC(=O)[C@@H]2C[C@@H](O)CN2C(=O)[C@@H](NC(=O)CCn2cc(COc3ccc(-c4ccc(N5C(=S)N(c6ccc(C#N)c(C(F)(F)F)c6F)C(=O)C5(C)C)cn4)cc3)nn2)C(C)(C)C)cc1` [Compound A80] registered a DC50 in data set [2] of 116 nM.

In data set [2], `Cc1ncsc1-c1ccc(CNC(=O)[C@@H]2C[C@@H](O)CN2C(=O)[C@@H](NC(=O)COCC(F)CCOc2ccc(-c3ccc(N4C(=S)N(c5ccc(C#N)c(C(F)(F)F)c5F)C(=O)C4(C)C)cn3)cc2)C(C)(C)C)cc1` (stereo partly drawn) [Compound A171] came in with a DC50 of 80.2 nM.

For `CC(C)(C)[C@H](NC(=O)COCCCCOc1c(F)cc(-c2ncc(N3C(=S)N(c4ccc(C#N)c(C(F)(F)F)c4F)C(=O)C3(C)C)cc2C(F)(F)F)cc1F)C(=O)N1C[C@H](O)C[C@H]1C(=O)NCc1ccc(C(N)=O)cc1` [Compound A116], the DC50 in data set [2] amounted to 370 nM.

Compound `Cc1ncsc1-c1ccc(CNC(=O)[C@@H]2C[C@@H](O)CN2C(=O)[C@@H](NC(=O)CCCN2CC(Oc3ccc(-c4ccc(N5C(=S)N(c6ccc(C#N)c(C(F)(F)F)c6F)C(=O)C5(C)C)cn4)cc3)C2)C(C)(C)C)cc1` [Compound A64] displayed a DC50 in data set [2] of 233 nM.

For the compound `CC(C)(C)[C@H](NC(=O)COCCCCOc1ccc(-c2ncc(N3C(=S)N(c4ccc(C#N)c(C(F)(F)F)c4F)C(=O)C3(C)C)cc2F)c(C(F)(F)F)c1)C(=O)N1C[C@H](O)C[C@H]1c1nc(-c2cncs2)c[nH]1` [Compound A204], the DC50 in data set [2] was 36.4 nM.

In turn, `Cc1cc(C(C(=O)N2C[C@H](O)C[C@H]2C(=O)N[C@@H](CC(=O)N2CCC(C#Cc3ccc(N4C(=S)N(c5ccc(C#N)c(C(F)(F)F)c5F)C(=O)C4(C)C)cc3)CC2)c2ccc(-c3scnc3C)cc2)C(C)C)on1` (stereo partly drawn) [Compound A176] came in with a DC50 in data set [2] of 62.1 nM.

With `Cc1ncsc1-c1ccc(CNC(=O)[C@@H]2C[C@@H](O)CN2C(=O)[C@@H](NC(=O)COCCOCCOc2ccc(-c3ccc(N4C(=S)N(c5ccc(C#N)c(C(F)(F)F)c5F)C(=O)C4(C)C)cn3)cc2)C(C)(C)C)cc1` [Compound A76], the DC50 in data set [2] worked out at 40 nM.

On to `CC1(C)C(=O)N(c2ccc(C#N)c(C(F)(F)F)c2F)C(=S)N1c1ccc(C#CC2CCN(CCNC(=O)COc3cccc4c3C(=O)N(C3CCC(=O)NC3=O)C4=O)CC2)cc1` (stereo not drawn) [Compound A27], for which, in data set [2], the DC50 stood at 34.8 nM.

In turn, `CC1(C)C(=O)N(c2ccc(C#N)c(C(F)(F)F)c2F)C(=S)N1c1ccc(-c2ccc(OCCNC(=O)COc3cccc4c3C(=O)N(C3CCC(=O)NC3=O)C4=O)cc2)nc1` (stereo not drawn) [Compound A23] had a DC50 in data set [2] of 721 nM.

In the case of `Cc1ncsc1-c1ccc(CNC(=O)[C@@H]2C[C@@H](O)CN2C(=O)[C@@H](NC(=O)COCCOc2ccc(-c3ncc(N4C(=S)N(c5ccc(C#N)c(C(F)(F)F)c5F)C(=O)C4(C)C)cc3C(F)(F)F)cc2)C(C)(C)C)cc1` [Compound A92], the DC50 in data set [2] is 99.6 nM.

With `Cn1cncc1-c1c[nH]c([C@@H]2C[C@@H](O)CN2C(=O)[C@@H](NC(=O)COCCCCOc2ccc(-c3ncc(N4C(=S)N(c5ccc(C#N)c(C(F)(F)F)c5F)C(=O)C4(C)C)cc3F)c(C(F)(F)F)c2)C(C)(C)C)n1` [Compound A233], the DC50 in data set [2] was 194 nM.

For the compound `Cc1ncsc1-c1c[nH]c([C@@H]2C[C@@H](O)CN2C(=O)[C@@H](NC(=O)COCCCCOc2ccc(-c3ncc(N4C(=S)N(c5ccc(C#N)c(C(F)(F)F)c5F)C(=O)C4(C)C)cc3F)c(C(F)(F)F)c2)C(C)(C)C)n1` [Compound A165], in data set [2], the DC50 was 43.8 nM.

`Cc1ncsc1-c1ccc(CNC(=O)[C@@H]2C[C@@H](O)CN2C(=O)[C@@H](OC(=O)COCCCCOc2ccc(-c3ncc(N4C(=S)N(c5ccc(C#N)c(C(F)(F)F)c5F)C(=O)C4(C)C)cc3F)cc2F)C(C)(C)C)cc1` [Compound A107]: in data set [2], the DC50 was 107 nM.

As to `Cc1ncsc1-c1ccc(CNC(=O)[C@@H]2C[C@@H](O)CN2C(=O)[C@@H](NC(=O)COCC(F)(F)CCOc2ccc(-c3ncc(N4C(=S)N(c5ccc(C#N)c(C(F)(F)F)c5F)C(=O)C4(C)C)cc3F)cc2F)C(C)(C)C)cc1` [Compound A162], the DC50 in data set [2] was found to be 186 nM.

Take `Cc1ncsc1-c1ccc(CNC(=O)[C@@H]2C[C@@H](O)CN2C(=O)[C@@H](NC(=O)COCCCCOc2ccc(-c3ncc(N4C(=S)N(c5ccc(C#N)c(C(F)(F)F)c5F)C(=O)C4(C)C)cc3C(F)(F)F)cc2C#N)C(C)(C)C)cc1` [Compound A75]: the DC50 in data set [2] is 89.4 nM.

In data set [2], `Cc1ncsc1-c1ccc(CNC(=O)[C@@H]2C[C@@H](O)CN2C(=O)[C@@H](NC(=O)COCC(F)CCOc2ccc(-c3ncc(N4C(=S)N(c5ccc(C#N)c(C(F)(F)F)c5F)C(=O)C4(C)C)cc3F)cc2F)C(C)(C)C)cc1` (stereo partly drawn) [Compound A159] came in with a DC50 of 168 nM.

For `Cc1cc(C(C(=O)N2C[C@H](O)C[C@H]2C(=O)N[C@@H](CC(=O)NCCN2CCC(C#Cc3ccc(N4C(=S)N(c5ccc(C#N)c(C(F)(F)F)c5F)C(=O)C4(C)C)cc3)CC2)c2ccc(-c3scnc3C)cc2)C(C)C)on1` (stereo partly drawn) [Compound A184], in data set [2], the DC50 stood at 370 nM.

Compound `Cc1ncsc1-c1ccc(CNC(=O)[C@@H]2C[C@@H](O)CN2C(=O)[C@@H](NC(=O)COCCCOCCCCOc2ccc(N3C(=S)N(c4ccc(C#N)c(C(F)(F)F)c4F)C(=O)C3(C)C)cn2)C(C)(C)C)cc1` [Compound A248] registered a DC50 in data set [2] of 48.8 nM.

`CC(C)(C)[C@H](NC(=O)COCCCCOc1ccc(-c2ccc(N3C(=S)N(c4ccc(C#N)c(C(F)(F)F)c4F)C(=O)C3(C)C)cn2)cc1)C(=O)N1C[C@H](O)C[C@H]1c1nc(-c2cccnc2)c[nH]1` [Compound A214]: in data set [2], the DC50 came to 173 nM.

In data set [2], `CC(C)(C)[C@H](NC(=O)COCCCCOc1c(F)cc(-c2ncc(N3C(=S)N(c4ccc(C#N)c(C(F)(F)F)c4F)C(=O)C3(C)C)cc2C(F)(F)F)cc1F)C(=O)N1C[C@H](O)C[C@H]1C(=O)NCc1ccccc1` [Compound A114] yielded a DC50 of 79.3 nM.
